Reference: patent publication US8431567B2 (Abbott GmbH & Co. KG, priority 2006, dated 2013)
Where a name gives a salt, the structure may show the parent alone.

target: T1, human vasopressin V1b receptor (Homo sapiens, UniProt P47901); test: Vasopressin V1b receptor binding test; details: membranes of CHO-K1 cells, displacement of 1.5 nM 3H-AVP
T1 construct: expressed in transfected cells; host or cells: CHO-K1 (cell line hV1b_3H2_CHO), membrane preparation
T1 sequence (P47901 1-424): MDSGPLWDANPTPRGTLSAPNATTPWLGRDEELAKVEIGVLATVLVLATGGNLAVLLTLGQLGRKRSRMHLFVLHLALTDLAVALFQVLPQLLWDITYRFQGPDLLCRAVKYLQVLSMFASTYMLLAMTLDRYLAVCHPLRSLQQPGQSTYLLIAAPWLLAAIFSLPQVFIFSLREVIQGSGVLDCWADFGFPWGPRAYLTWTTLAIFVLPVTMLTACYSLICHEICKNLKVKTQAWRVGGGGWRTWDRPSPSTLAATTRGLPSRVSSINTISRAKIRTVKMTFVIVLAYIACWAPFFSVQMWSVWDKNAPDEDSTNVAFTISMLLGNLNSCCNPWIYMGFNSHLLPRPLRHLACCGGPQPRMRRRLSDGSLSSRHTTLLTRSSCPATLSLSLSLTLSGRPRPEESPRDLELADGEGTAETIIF
Experimental: • Vasopressin V1b Receptor Binding Test: • Substances:
The test substances were dissolved at a concentration of 10^−2 M in DMSO and diluted further in DMSO to 5×10^−4 M to 5×10^−9 M. These DMSO solutions were diluted 1:10 with test buffer. The concentration of substance was again diluted 1:5 in the test preparation.
The membrane pellet was homogenized and centrifuged again as described, and then taken up in 50 mM Tris-HCl, pH 7.4, homogenized and, frozen in aliquots, stored at −190° C. in liquid nitrogen.
The incubation buffer was: 50 mM Tris, 10 mM MgCl2, 0.1% BSA, pH 7.4. […] The nonspecific binding was determined with 1 μM AVP (Bachem #H1780). All determinations were performed in triplicate. After incubation (60 minutes at room temperature), the free radioligand was filtered off by vacuum filtration (Skatron cell harvester 7000) on Whatman GF/B glass-fibre filter mats and the filters were transferred to scintillation vessels. Liquid scintillation measurement was performed in a Tricarb instrument, Model 2000 or 2200CA (Packard). Conversion of the measured cpm to dpm was performed with the aid of a standard quench series.
The binding parameters were calculated by nonlinear regression in SAS.
For the compounds according to the invention, the affinities for the human vasopressin receptor V1b were measured according to the above test and the affinity constant (Ki) was determined.

Ki	Compound
< 50 nM	CCOc1ccc(OC)cc1C1(N2CCN(C3CCNCC3)CC2)C(=O)N(S(=O)(=O)c2ccc(OC)cc2OC)c2ccc(C#N)cc21 (racemic) [Example 100, (±)-5-Cyano-1-(2,4-dimethoxy-benzenesulphonyl)-3-(2-ethoxy-5-methoxyphenyl)-3-(4-piperidin-4-yl-piperazin-1-yl)-2,3-dihydro-1H-indol-2-one hydrochloride]
< 50 nM	COc1ccc(S(=O)(=O)N2C(=O)C(c3ccccc3Cl)(N3CCN(c4ccncc4)CC3)c3cc(Cl)ccc32)c(OC)c1 (stereo not shown) [Example 24, 5-Chloro-3-(2-chloro-phenyl)-1-(2,4-dimethoxy-benzenesulphonyl)-3-(4-pyridin-4-yl-piperazin-1-yl)-1,3-dihydro-indol-2-one]
50 to 500 nM	CCOc1ccccc1C1(N2CCN(c3ccncc3)CC2)C(=O)N(S(=O)(=O)c2ccc([N+](=O)[O-])cc2OC)c2ccc(C#N)cc21 (racemic) [Example 91, (±)-5-Cyano-3-(2-ethoxyphenyl)-1-(2-methoxy-4-nitro-benzenesulphonyl)-3-(4-pyridin-4-yl-piperazin-1-yl)-2,3-dihydro-1H-indol-2-one]
50 to 500 nM	CCOc1ccc(S(=O)(=O)N2C(=O)C(c3ccccc3OCC)(N3CCN(c4ccncc4)CC3)c3cc(C#N)ccc32)cc1 (racemic) [Example 89, (±)-5-Cyano-1-(4-ethoxy-benzenesulphonyl)-3-(2-ethoxyphenyl)-3-(4-pyridin-4-yl-piperazin-1-yl)-2,3-dihydro-1H-indol-2-one]
< 50 nM	CCOc1ccc(CC)cc1C1(N2CCN(c3ccnc(C)c3)CC2)C(=O)N(S(=O)(=O)c2ccc(OC)cc2OC)c2ccc(C#N)cc21 (racemic) [Example 107, (±)-5-Cyano-1-(2,4-dimethoxy-benzenesulphonyl)-3-(2-ethoxy-5-ethyl-phenyl)-3-[4-(2-methyl-pyridin-4-yl)-piperazin-1-yl]-2,3-dihydro-1H-indol-2-one]
< 50 nM	COc1ccc(S(=O)(=O)N2C(=O)C(c3ccccc3OC)(N3CC4CN(c5ccncc5)CC4C3)c3cc(Cl)ccc32)c(OC)c1 (stereo not shown) [Example 19, 5-Chloro-1-(2,4-dimethoxy-benzenesulphonyl)-3-(2-methoxyphenyl)-3-(5-pyridin-4-yl-hexahydro-pyrrolo[3,4-c]pyrrol-2-yl)-1,3-dihydro-indol-2-one]
50 to 500 nM	CCOc1ccccc1C1(N2CCN(C3CCN(C)CC3)CC2)C(=O)N(S(=O)(=O)c2ccc(OC)cc2OC)c2ccc(C#N)cc21 (racemic) [Example 76, (±)-5-Cyano-1-(2,4-dimethoxy-benzenesulphonyl)-3-(2-ethoxyphenyl)-3-[4-(1-methyl-piperidin-4-yl)-piperazin-1-yl]-2,3-dihydro-1H-indol-2-one]
50 to 500 nM	CCOc1ccccc1C1(N2CCN(c3ccncc3)CC2)C(=O)N(S(=O)(=O)c2ccccc2)c2ccc(C#N)cc21 (stereo not shown) [Example 14, 5-Cyano-1-benzenesulphonyl-3-(2-ethoxyphenyl)-3-(4-pyridin-4-yl-piperazin-1-yl)-2,3-dihydro-1H-indol-2-one]
50 to 500 nM	CCOc1ccccc1C1(N2CCN(c3ccncc3)CC2)C(=O)N(S(=O)(=O)c2ccc(C(C)=O)cc2)c2ccc(C#N)cc21 (racemic) [Example 88, (±)-5-Cyano-1-(4-acetyl-benzenesulphonyl)-3-(2-ethoxyphenyl)-3-(4-pyridin-4-yl-piperazin-1-yl)-2,3-dihydro-1H-indol-2-one]
< 50 nM	CCOc1ccccc1C1(N2CCN(c3ccnc(CC)c3)CC2)C(=O)N(S(=O)(=O)c2ccc(OC)cc2OC)c2ccc(C#N)cc21 (racemic) [Example 93, (±)-5-Cyano-1-(2,4-dimethoxy-benzenesulphonyl)-3-(2-ethoxyphenyl)-3-[4-(2-ethyl-pyridin-4-yl)-piperazin-1-yl]-2,3-dihydro-1H-indol-2-one]
< 50 nM	CCOc1ccc(OC)cc1C1(N2CCCN(c3ccnc(C)c3)CC2)C(=O)N(S(=O)(=O)c2ccc(OC)cc2OC)c2ccc(C#N)cc21 (racemic) [Example 95, (±)-5-Cyano-1-(2,4-dimethoxy-benzenesulphonyl)-3-(2-ethoxy-5-methoxyphenyl)-3-[4-(2-methyl-pyridin-4-yl)-[1.4]diazepan-1-yl]-2,3-dihydro-1H-indol-2-one]
50 to 500 nM	CCOc1ccccc1C1(N2CCN(c3ccncc3)CC2)C(=O)N(S(=O)(=O)c2ccc(S(C)(=O)=O)cc2)c2ccc(C#N)cc21 (racemic) [Example 86, (±)-5-Cyano-3-(2-ethoxyphenyl)-1-(4-methanesulphonyl-benzenesulphonyl)-3-(4-pyridin-4-yl-piperazin-1-yl)-2,3-dihydro-1H-indol-2-one]
50 to 500 nM	COc1ccccc1C1(N2CCN(c3ccncc3)CC2)C(=O)N(S(=O)(=O)c2ccccc2)c2ccc(Cl)cc21 (stereo not shown) [Example 16, 1-Benzenesulphonyl-5-chloro-3-(2-methoxyphenyl)-3-(4-pyridin-4-yl-piperazin-1-yl)-1,3-dihydro-indol-2-one]
50 to 500 nM	CCOc1ccccc1C1(N2CCN(c3ccnc(C)c3)CC2)C(=O)N(S(=O)(=O)c2ccc(OC)cc2OC)c2ccc(C#N)cc21 (stereo not shown) [Example 35, 5-Cyano-1-(2,4-dimethoxy-benzenesulphonyl)-3-(2-ethoxyphenyl)-3-[4-(2-methyl-pyridin-4-yl)-piperazin-1-yl]-2,3-dihydro-1H-indol-2-one]
50 to 500 nM	COc1ccc(S(=O)(=O)N2C(=O)C(c3ccccc3OC)(N3CCN(c4ccncc4)CC3)c3cc(Cl)ccc32)cc1 (stereo not shown) [Example 20, 5-Chloro-1-(4-methoxy-benzenesulphonyl)-3-(2-methoxyphenyl)-3-(4-pyridin-4-yl-piperazin-1-yl)-1,3-dihydro-indol-2-one]
< 50 nM	CCOc1ccc(OC)cc1C1(N2CCN(C3CCN(C)CC3)CC2)C(=O)N(S(=O)(=O)c2ccc(OC)cc2OC)c2ccc(C#N)cc21 (racemic) [Example 102, (±)-5-Cyano-1-(2,4-dimethoxy-benzenesulphonyl)-3-(2-ethoxy-5-methoxyphenyl)-3-[4-(1-methyl-piperidin-4-yl)-piperazin-1-yl]-2,3-dihydro-1H-indol-2-one]
50 to 500 nM	CCOc1ccccc1C1(N2CCN(c3ccncc3)CC2)C(=O)N(S(=O)(=O)c2ccc(F)cc2F)c2ccc(C#N)cc21 (racemic) [Example 72, (±)-5-Cyano-1-(2,4-difluoro-benzenesulphonyl)-3-(2-ethoxyphenyl)-3-(4-pyridin-4-yl-piperazin-1-yl)-2,3-dihydro-1H-indol-2-one trifluoroacetate]
< 50 nM	CCOc1ccc(OC)cc1C1(N2CCN(c3ccncc3)CC2)C(=O)N(S(=O)(=O)c2ccc(OC)cc2OC)c2ccc(C#N)cc21 (stereo not shown) [Example 55, 5-Cyano-1-(2,4-dimethoxy-benzenesulphonyl)-3-(2-ethoxy-5-methoxyphenyl)-3-(4-pyridin-4-yl-piperazin-1-yl)-2,3-dihydro-1H-indol-2-one]
< 50 nM	CCOc1ccc(OC)cc1C1(N2CC3CN(c4ccncc4)CC3C2)C(=O)N(S(=O)(=O)c2ccc(OC)cc2OC)c2ccc(C#N)cc21 (stereo not shown) [Example 58, 5-Cyano-1-(2,4-dimethoxy-benzenesulphonyl)-3-(2-ethoxy-5-methoxyphenyl)-3-(5-pyridin-4-yl-hexahydro-pyrrolo[3,4-c]pyrrol-2-yl)-2,3-dihydro-1H-indol-2-one]
< 50 nM	COc1ccc(S(=O)(=O)N2C(=O)C(c3cc(OC)ccc3OC)(N3CCN(c4ccncc4)CC3)c3cc(OC)ccc32)c(OC)c1 (stereo not shown) [Example 28, 1-(2,4-Dimethoxy-benzenesulphonyl)-3-(2,5-dimethoxyphenyl)-5-methoxy-3-(4-pyridin-4-yl-piperazin-1-yl)-1,3-dihydro-indol-2-one]
50 to 500 nM	CCOc1ccccc1C1(N2CCCN(c3ccncc3)CC2)C(=O)N(S(=O)(=O)c2ccc(OC)cc2OC)c2ccc(C#N)cc21 (stereo not shown) [Example 56, 5-Cyano-1-(2,4-dimethoxy-benzenesulphonyl)-3-(2-ethoxyphenyl)-3-(4-pyridin-4-yl-[1.4]diazepan-1-yl)-2,3-dihydro-1H-indol-2-one]

Compound	Ki
COc1ccc(S(=O)(=O)N2C(=O)C(c3cc(C)ccc3OC)(N3CCN(c4ccncc4)CC3)c3cc(C#N)ccc32)c(OC)c1 (racemic) [Example 67, (±)-5-Cyano-1-(2,4-dimethoxy-benzenesulphonyl)-3-(2-methoxy-5-methylphenyl)-3-(4-pyridin-4-yl-piperazin-1-yl)-2,3-dihydro-1H-indol-2-one×trifluoroacetic acid]	< 50 nM
